Experimental findings from article PMC10525516, “Novel NADPH Oxidase-2 Inhibitors as Potential Anti-Inflammatory and Neuroprotective Agents” (Antioxidants, 2023) are described below.

Molecules are shown by their SMILES.

What all share (type): cell-based
The target of experiment [1] is T1, Nox2 (Homo sapiens, UniProt P04839).
T1 construct: endogenous in cells
T1 sequence (P04839 2-570 limits assumed): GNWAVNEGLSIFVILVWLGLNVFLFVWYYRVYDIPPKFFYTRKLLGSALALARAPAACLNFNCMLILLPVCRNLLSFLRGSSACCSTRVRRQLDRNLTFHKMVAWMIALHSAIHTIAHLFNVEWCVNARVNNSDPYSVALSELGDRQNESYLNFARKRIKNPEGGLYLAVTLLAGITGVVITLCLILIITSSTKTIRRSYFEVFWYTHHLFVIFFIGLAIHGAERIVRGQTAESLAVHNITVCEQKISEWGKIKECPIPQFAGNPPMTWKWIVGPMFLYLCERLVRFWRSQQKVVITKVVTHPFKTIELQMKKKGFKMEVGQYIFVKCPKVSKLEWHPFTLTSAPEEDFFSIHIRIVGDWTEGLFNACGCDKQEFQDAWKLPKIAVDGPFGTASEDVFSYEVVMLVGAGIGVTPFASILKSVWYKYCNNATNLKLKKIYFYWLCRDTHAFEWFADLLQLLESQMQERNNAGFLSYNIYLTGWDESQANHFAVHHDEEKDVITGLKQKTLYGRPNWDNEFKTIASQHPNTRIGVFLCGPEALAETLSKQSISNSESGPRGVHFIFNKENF
T1 sequence (P13498 2-195 partner limits assumed): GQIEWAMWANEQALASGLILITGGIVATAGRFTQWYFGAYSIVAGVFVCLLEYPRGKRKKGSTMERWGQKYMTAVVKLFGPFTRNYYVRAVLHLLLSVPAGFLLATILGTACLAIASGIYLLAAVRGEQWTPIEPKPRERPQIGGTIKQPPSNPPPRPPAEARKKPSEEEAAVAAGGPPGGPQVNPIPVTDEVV
The experiment can be described thus: Plate reader hydroethidine (HE + DNA) assay of O2•− production by PMA-activated dHL60 cells. As for the experimental part:
Human promyelocytic leukemia HL60 cells (Sigma-Aldrich) were grown in RPMI 1640 medium (Gibco, 11875-093, Billings, MT, USA) supplemented with 10% FBS (Omega Scientific (Tarzana, CA, USA)), 100 units/mL penicillin, and 100 µg/mL streptomycin, and were incubated at 37 °C and 5% carbon dioxide (CO2). For differentiation to neutrophil-like cells, HL60 cells were pelleted and resuspended in fresh media containing 1 µM of all trans-retinoic acid and incubated for four to five days. Nox2 activation was achieved by treating differentiated HL60 (dHL60) cells with 1 µM PMA [24]. […]
Plate reader-based analyses of the production of O2^•− and H2O2 by PMA-activated dHL60 cells were performed according to a published protocol with minor modifications. […] Once probes + PMA were added, plates were sealed with sealing film and immediately placed in the pre-warmed plate readers (37 °C). Fluorescence intensities were monitored kinetically from the bottom of the plates every 1.3 min for a period of 2 h using Beckman Coulter (Brea, CA, USA) DTX880 and BMG Labtech (Ortenberg, Germany) FLUOstar Omega plate readers. […] The IC50 values were determined using at least five independent measurements, each consisting of technical quadruplicates per concentration.

Experiment [2] deals with T1, Nox2. The experiment can be described thus: Rapid HPLC analysis of HE oxidation (2-OH-E+) for O2•− production by activated dHL60 cells. The following applies: 1 h incubation after PMA, Figure 5D,E. As for the experimental part: For high-performance liquid chromatography (HPLC)-based analyses of superoxide production by activated dHL60 cells, the cells (0.8 mL, 2 × 10^5 cells/mL) were pretreated with inhibitors for 30 min, as described above, followed by the addition of 200 µL of the mixture of PMA (5 µM) and HE (50 µM); then, they were incubated for 1 h at 37 °C in the dark. Next, 0.5 mL aliquots of the cell suspensions were transferred into 1.5 mL microcentrifuge tubes prefilled with 10 µL of a mixture of 3,8-diamino-6-phenylphenanthridine (50 µM, used as an internal standard), superoxide dismutase, and catalase (5 mg/mL and 5 kU/mL, respectively, used to stop probe oxidation), and the tubes were centrifugated (5 min, 3000× g) to pellet the cells. Clear supernatants (0.2 mL) were transferred into HPLC vials and analyzed for HE, 2-hydroxyethidium (2–OH–E^+), ethidium (E^+), and diethidium (E^+–E^+) content, as described previously. Briefly, an Agilent 1100 HPLC system equipped with an Ascentis Express Phenyl-Hexyl column (50 mm × 4.6 mm, 2.7 µm, Supelco, Bellefonte, PA, USA) and absorption and fluorescence detectors was used. […] Samples (25 µL) were injected, and the products were detected by monitoring absorbance (290 and 370 nm) and fluorescence (exc. 370 nm, emi. 565 nm) signals.

For experiment [3], the target named is T1, Nox2. Put plainly: Amplex Red/HRP assay of H2O2 production by PMA-activated dHL60 cells. The following applies: PMA (1 µM)-activated dHL60 cells, 30 min preincubation; read-out: IC50, inhibition of H2O2 production, Amplex Red Assay. As for the experimental part: Human promyelocytic leukemia HL60 cells (Sigma-Aldrich) were grown in RPMI 1640 medium (Gibco, 11875-093, Billings, MT, USA) supplemented with 10% FBS (Omega Scientific (Tarzana, CA, USA)), 100 units/mL penicillin, and 100 µg/mL streptomycin, and were incubated at 37 °C and 5% carbon dioxide (CO2). For differentiation to neutrophil-like cells, HL60 cells were pelleted and resuspended in fresh media containing 1 µM of all trans-retinoic acid and incubated for four to five days. Nox2 activation was achieved by treating differentiated HL60 (dHL60) cells with 1 µM PMA [24]. Human leukemia monocytic cells, THP-1, were grown in RPMI 1640 medium + GlutaMAX^TM (Gibco, 61870-036) and supplemented with 10% FBS, 10 mM HEPES, and 1 mM sodium pyruvate and incubated at 37 °C in 5% CO2 environment. To induce differentiation into macrophages, THP-1 cells were treated with PMA (100 ng/mL) for 48 h. To test the efficacy of Nox2 inhibitors, treatment was performed with or without the inhibitor, along with PMA [35].
Plate reader-based analyses of the production of O2^•− and H2O2 by PMA-activated dHL60 cells were performed according to a published protocol with minor modifications. Briefly, for the treatment of dHL60 cells with different concentrations of the compounds, 0.5 mL deep-well 96-well plates were used to dispense and store aliquots of their 10 mM DMSO solutions. Using a Multidrop™ PicoIT dispenser (Thermo Scientific), different volumes of the solutions of candidate Nox inhibitors (10 or 50 mM in DMSO) were injected into the bottom of 0.5 mL V-bottom 96-well plates; then, they were sealed with aluminum foil (VWR, Batavia, IL, USA) using a semiautomatic thermal sealer (BT LabSystems, St. Louis, MO, USA) and stored at −20 °C to reduce freeze-thawing the solutions. The plates with inhibitors were allowed to come to room temperature before the addition of the cell suspensions. dHL60 cells were pelleted and resuspended in HBSS (Invitrogen, Waltham, MA, USA) supplemented with 25 mM HEPES (pH 7.4) and 100 µM DTPA to a cell density of 2 × 10^5 cells/mL. dHL60 cells were added to the V-bottom plates at a volume of 210 µL/well. Next, cells were incubated with inhibitors for 30 min at 37 °C in a CO2-free incubator under ambient oxygen and then transferred to black, clear-bottom 96-well plates (200 µL/well) after incubation. Freshly prepared PMA plus probe solutions in HBSS (5× concentrated, 50 µL/well) included PMA (5 µM) with CBA (500 µM) or with Amplex Red (250 µM) plus HRP (0.5 U/mL) for H2O2 detection, or with HE (50 µM) plus DNA (0.5 mg/mL) for O2^•− detection. Once probes + PMA were added, plates were sealed with sealing film and immediately placed in the pre-warmed plate readers (37 °C). Fluorescence intensities were monitored kinetically from the bottom of the plates every 1.3 min for a period of 2 h using Beckman Coulter (Brea, CA, USA) DTX880 and BMG Labtech (Ortenberg, Germany) FLUOstar Omega plate readers. DMSO alone and DPI (10 µM) were used as negative and positive controls, respectively. […] The IC50 values were determined using at least five independent measurements, each consisting of technical quadruplicates per concentration.

For `CN(C)CCCn1c(SCCc2c[nH]c3ccccc23)nc2ccc(F)cc2c1=O` [TG15-132], the IC50 on Nox2 [1] (HE probe + DNA, plate reader, PMA-activated dHL60 cells, Figure 5C, read-out: IC50, inhibition of O2•− production) amounted to 5 µM; on Nox2 [3], 7.9 ± 3 µM. Also, at Nox2 [1] (cell pretreatment, Figure 5B,C), the “PMA-stimulated increase in HE fluorescence intensity” value is “dose-dependently inhibited”. Moreover, the “HE consumption and 2-OH-E+ formation (HPLC)” value on Nox2 [2] is “inhibited by cell pretreatment with TG15-132 in a dose-dependent manner”.

By IC50 is commonly meant the point on the concentration scale where inhibition reaches its midpoint.
